{"source": "patent US5112845A", "about": "“Alpha-heterocycle substituted tolunitriles” (Ciba-Geigy Corporation, priority 1990, dated 1992)", "key": {"[1]": {"system": "dimethylbenzanthracene (DMBA)-induced mammary tumors", "assay": "antitumor activity in DMBA-induced mammary tumors in rats", "format": "in vivo, female Sprague-Dawley rats", "settings": "Rattus norvegicus, po, read-out: effective daily dose (antitumor)", "source_text": "Exp. Biol. Med. 160, 296-301 (1979)]."}, "female dogs [2]": {"system": "female dogs", "assay": "cessation of proestrus and estrus in female dogs treated from proestrus", "format": "in vivo, dog", "source_text": "(§1) Proestrus, for example in the bitch, commences with a vaginal discharge, followed by attraction of the male resulting from estrogen secretion and lasts on an average of 9 days. The females only permit mating during estrus. The compounds of the present invention, when administered to female dogs e.g. on the second day of proestrus, terminate all physical signs of proestrus andestrus and mating will be prevented.\n(§2) For example, ten mature beagles during anestrus with known breeding histories were administered e.g. 10.0 mg/kg p.o. daily of the compound of example 46 for 224 days. […] Ten female beagles with known breeding histories were administered 10.0 mg/kg p.o. daily of the compound of example 46 for 91 days beginning on the first day proestrus was noted."}, "female dogs [3]": {"system": "female dogs", "assay": "prevention of proestrus and estrus in female dogs treated during anestrus", "format": "in vivo, dog", "settings": "10.0 mg/kg p.o. daily for 224 days, ten mature beagles during anestrus; controls exhibited proestrus and estrus at least once", "source_text": "as §1, §2"}, "aromatase": {"biological_target": "T1, aromatase (Homo sapiens, UniProt P11511)", "T1 construct": "A microsomal fraction is prepared from human placenta by the method essentially as described by Thompson and Siiteri; from tissue; host or cells: human placenta, microsomal fraction (lyophilized)", "T1 sequence (P11511 1-503)": "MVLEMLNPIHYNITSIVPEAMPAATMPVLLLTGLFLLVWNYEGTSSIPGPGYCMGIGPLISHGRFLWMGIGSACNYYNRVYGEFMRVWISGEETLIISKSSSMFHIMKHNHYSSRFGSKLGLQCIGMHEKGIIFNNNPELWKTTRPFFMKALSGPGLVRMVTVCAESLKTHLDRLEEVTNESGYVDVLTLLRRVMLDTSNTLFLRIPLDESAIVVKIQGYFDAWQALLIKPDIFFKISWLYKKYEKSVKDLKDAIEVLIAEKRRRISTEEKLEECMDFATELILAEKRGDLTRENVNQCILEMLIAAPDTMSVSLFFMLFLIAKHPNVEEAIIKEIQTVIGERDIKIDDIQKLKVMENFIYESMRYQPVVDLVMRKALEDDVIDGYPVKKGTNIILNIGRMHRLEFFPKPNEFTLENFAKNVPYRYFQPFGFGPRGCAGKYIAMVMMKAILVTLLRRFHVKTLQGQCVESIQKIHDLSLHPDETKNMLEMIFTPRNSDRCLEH", "assay": "in vitro inhibition of aromatase activity (human placental microsomes, aromatization of [1,2-^3 H]-androstenedione)", "format": "biochemical", "settings": "20 minutes at 37° C", "description": "The microsomal preparation so obtained is lyophilized and stored at -40° C.\nThe assay is conducted substantially as described by Thompson and Siiteri. The human placental microsomes are added to [1,2-^3 H]-androstenedioneand incubated for 20 minutes at 37° C. The amount of aromatization of the labelled substrate is detected by the […] of ^3 H2 O into the incubation medium. The substrate is removed by chloroform extraction, followed by adsorption to charcoal in suspension. The charcoal is removed by centrifugation and the steroid-free medium is counted in a liquid scintillation counter. Compounds are tested for aromatase inhibitory activity by adding them to the incubation medium prior to the addition of the microsomes. The relative cpm obtained with and without the inhibitor is used to calculate the percent inhibition of the aromatization of androstenedione to estrone."}, "estrogen synthesis": {"system": "estrogen synthesis", "assay": "in vivo inhibition of aromatase activity: inhibition of estrogen synthesis in rats (ovarian estrogen content)", "settings": "po, female rat, PMS/hCG and androstenedione treated; read-out: dose at which estrogen synthesis is inhibited", "description": "Twenty-one-day-old female rats are injected subcutaneously with 10 IU pregnant mare serum gonadotropin (PMS). Two days later the same rats are injected subcutaneously with 30 IU human chorionic gonadrotropin (hCG). On the day following the hCG treatment the rats are injected subcutaneously with either propylene glycol (0.2 ml; […].) or with various doses of the test compound. […] Four hours after the injection of androstenedione the rats are sacrificed and their ovaries removed and trimmed free of adhering tissue and stored in pairs at -40° C. To determine the total estrogen content of the ovaries, 1.5 ml of 0.05M aqueous potassium phosphate buffer, pH 7.4, and 0.2 ml of 0.1N aqueous sodium hydroxide are added to the tissues which are then homogenized. The homogenate is extracted with 15 ml of diethyl ether, 5 ml aliquots are radioimmunoassayed with antiserum having 100% cross reactivity with estrone, estradiol and estriol. The ovarian estrogen content is expressed as ng estrogen/pair of ovaries. The inhibition of estrogen synthesis, indicative of aromatase inhibition, is calculated from the ovarian estrogen content in treated as compared to control animals."}, "female rats": {"system": "female rats", "assay": "in vivo antifertility property (implantation and/or fetal resorption) in rats", "design": "species or system rat (Sprague Dawley)", "settings": "Rattus norvegicus, po, administered as the fumarate or hemisuccinate salt, read-out: dose at which fertility is inhibited", "description": "Mated female rats (Sprague Dawley) weighing approximately 180-200 g were obtained on the day of coitus. The presence of sperm in the vagina was used as a verification that mating had occurred. On the day of receipt, day of coitus or day 0 of `pregnancy`, the rats are divided into two groups of six to eight rats per group. One group is given various doses of the test compound p.o., suspended in 0.2 ml of carboxymethylcellulose (CMC) beginning on day 1 of `pregnancy` and continuing through day 9 of `pregnancy`. These same rats receive a daily injection of 0.1 ml of sesame oil s.c. over this same time frame. The second group of rats receive the vehicles, CMC p.o. and oil s.c., on days 1-9 of `pregnancy`. All of the rats are sacrificed on day 12 or 13 of `pregnancy`, and their uteri are exposed and examined for fetuses and/or resorption sites."}}, "note": "Structures can show the parent of a compound that is named as a salt. Where two headings read alike, the source gives them in different places.", "data": [{"molecule": "N#Cc1ccc(C(c2ccc(C#N)cc2)n2cncn2)cc1", "note": "[Example 20a, 4-[alpha-(4-cyanophenyl)-1-(1,2,4-triazolyl)-methyl]benzonitrile]", "values": [{"measurement": "minimal effective dose", "setting": "[1]; daily, p.o., rats, DMBA-induced mammary tumors", "value": "~0.03", "unit": "mg/kg/day"}]}, {"molecule": "N#Cc1ccc(C(c2cccnc2)n2ccnc2)cc1", "note": "(stereo not drawn) [Example 46, sulfate salt of 4-[alpha-(3-pyridyl)-1-imidazolylmethyl]benzonitrile]", "values": [{"measurement": "signs of proestrus", "setting": "female dogs [2]; 10.0 mg/kg p.o. daily for 91 days beginning on first day of proestrus, ten female beagles", "value": "All signs of proestrus disappeared"}, {"measurement": "acceptance of a male", "setting": "female dogs [2]; 10.0 mg/kg p.o. daily for 91 days, ten female beagles, male presented 9 and 11 days later", "value": "no dogs accepted a male"}, {"measurement": "proestrus during remainder of treatment", "setting": "female dogs [2]; 10.0 mg/kg p.o. daily, remainder of the 91 days, ten female beagles", "value": "Proestrus was not observed"}, {"measurement": "acceptance of a male dog", "setting": "female dogs [2]; 10.0 mg/kg p.o. daily, 9 and 11 days following the initial sign of proestrus", "value": "refused to accept a male dog"}, {"measurement": "dogs exhibiting estrus during recovery", "setting": "female dogs [2]; 190 days recovery period after 91 days at 10.0 mg/kg p.o. daily", "value": "eight of ten dogs exhibited estrus"}, {"measurement": "signs of proestrus", "setting": "female dogs [3]", "value": "No signs of proestrus were observed"}]}, {"molecule": "N#Cc1ccc(CC(c2ccc(C#N)cc2)n2ccnc2)cc1", "note": "(stereo not drawn) [Example 11f, 4-[alpha-(4-cyanobenzyl)-1-imidazolylmethyl]benzonitrile]", "values": [{"measurement": "IC50", "setting": "aromatase", "value": "~3", "unit": "nM"}, {"measurement": "minimal effective dose", "setting": "estrogen synthesis", "value": "~3", "unit": "µg/kg"}]}, {"molecule": "N#Cc1ccc(C(c2cccnc2)n2ccnc2)cc1", "note": "(stereo not drawn) [Example 5e, 4-[alpha-(3-pyridyl)-1-imidazolylmethyl]-benzonitrile]", "values": [{"measurement": "IC50", "setting": "aromatase", "value": "~16", "unit": "nM"}, {"measurement": "minimal effective dose", "setting": "estrogen synthesis", "value": "~3", "unit": "µg/kg"}]}, {"molecule": "N#Cc1ccc(C(c2ccc(C#N)cc2)n2ccnc2)cc1", "note": "[Example 2a, 4-[alpha-(4-cyanophenyl)-1-imidazolylmethyl]-benzonitrile]", "values": [{"measurement": "minimal effective dose", "setting": "[1]", "value": "~0.1", "unit": "mg/kg/day"}, {"measurement": "minimal effective dose", "setting": "female rats", "value": "~4", "unit": "mg/kg"}]}]}
